The values that follow come from ChEMBL document CHEMBL5653631, “A Potent and Selective ULK1 Inhibitor Suppresses Autophagy and Sensitizes Cancer Cells to Nutrient Stress” (iScience, 2018).

The target in experiment [1] is Serine/threonine-protein kinase mTOR (Homo sapiens) (UniProt P42345). As to the kind of experiment: Inhibition of human recombinant FRAP at 40 nM in presence of ATP by radiometric assay relative to control.
Experiment [2] has as its target T1, Serine/threonine-protein kinase Nek3 (Homo sapiens) (UniProt P51956).
T1 sequence (whole entry): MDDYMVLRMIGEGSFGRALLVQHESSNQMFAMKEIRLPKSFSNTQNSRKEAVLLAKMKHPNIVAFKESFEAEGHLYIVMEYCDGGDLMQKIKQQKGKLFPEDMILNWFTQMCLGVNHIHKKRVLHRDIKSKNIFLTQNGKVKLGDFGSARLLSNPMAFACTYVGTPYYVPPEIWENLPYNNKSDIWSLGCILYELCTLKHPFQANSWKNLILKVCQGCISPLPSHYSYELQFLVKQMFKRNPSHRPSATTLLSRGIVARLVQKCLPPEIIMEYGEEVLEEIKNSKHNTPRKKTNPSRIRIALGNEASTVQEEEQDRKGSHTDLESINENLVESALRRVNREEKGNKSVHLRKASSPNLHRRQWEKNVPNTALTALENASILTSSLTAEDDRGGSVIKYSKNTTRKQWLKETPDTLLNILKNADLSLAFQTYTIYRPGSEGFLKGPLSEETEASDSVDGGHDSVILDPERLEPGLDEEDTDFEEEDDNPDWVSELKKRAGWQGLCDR
The experiment can be described thus: Inhibition of human recombinant NEK3 at 500 nM in presence of ATP by radiometric assay relative to control.

Experiment [3] concerns the target T2, NUAK family SNF1-like kinase 1 (Homo sapiens) (UniProt O60285).
T2 sequence (whole entry): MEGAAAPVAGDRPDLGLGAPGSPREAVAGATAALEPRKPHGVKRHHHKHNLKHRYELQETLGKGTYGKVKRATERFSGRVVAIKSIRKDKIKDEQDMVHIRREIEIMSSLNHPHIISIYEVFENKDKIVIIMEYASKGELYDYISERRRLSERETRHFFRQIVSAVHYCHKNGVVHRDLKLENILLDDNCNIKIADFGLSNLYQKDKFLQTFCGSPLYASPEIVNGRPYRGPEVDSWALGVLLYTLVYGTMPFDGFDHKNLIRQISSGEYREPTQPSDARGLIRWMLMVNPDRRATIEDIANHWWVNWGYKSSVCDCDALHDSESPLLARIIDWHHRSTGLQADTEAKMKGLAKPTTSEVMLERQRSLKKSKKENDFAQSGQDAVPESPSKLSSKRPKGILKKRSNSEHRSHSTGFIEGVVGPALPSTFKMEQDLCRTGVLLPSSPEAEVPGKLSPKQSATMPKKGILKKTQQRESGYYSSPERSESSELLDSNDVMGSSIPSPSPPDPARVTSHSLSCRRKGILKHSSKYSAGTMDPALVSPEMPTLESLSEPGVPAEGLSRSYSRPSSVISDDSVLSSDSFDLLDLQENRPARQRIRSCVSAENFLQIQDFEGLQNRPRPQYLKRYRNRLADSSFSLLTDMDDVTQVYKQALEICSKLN
The experiment can be described thus: Inhibition of human recombinant NuaK1 at 15 nM related to control ULK1.

Experiment [4] deals with T3, Myosin-IIIb (Homo sapiens) (UniProt Q8WXR4).
T3 sequence (whole entry): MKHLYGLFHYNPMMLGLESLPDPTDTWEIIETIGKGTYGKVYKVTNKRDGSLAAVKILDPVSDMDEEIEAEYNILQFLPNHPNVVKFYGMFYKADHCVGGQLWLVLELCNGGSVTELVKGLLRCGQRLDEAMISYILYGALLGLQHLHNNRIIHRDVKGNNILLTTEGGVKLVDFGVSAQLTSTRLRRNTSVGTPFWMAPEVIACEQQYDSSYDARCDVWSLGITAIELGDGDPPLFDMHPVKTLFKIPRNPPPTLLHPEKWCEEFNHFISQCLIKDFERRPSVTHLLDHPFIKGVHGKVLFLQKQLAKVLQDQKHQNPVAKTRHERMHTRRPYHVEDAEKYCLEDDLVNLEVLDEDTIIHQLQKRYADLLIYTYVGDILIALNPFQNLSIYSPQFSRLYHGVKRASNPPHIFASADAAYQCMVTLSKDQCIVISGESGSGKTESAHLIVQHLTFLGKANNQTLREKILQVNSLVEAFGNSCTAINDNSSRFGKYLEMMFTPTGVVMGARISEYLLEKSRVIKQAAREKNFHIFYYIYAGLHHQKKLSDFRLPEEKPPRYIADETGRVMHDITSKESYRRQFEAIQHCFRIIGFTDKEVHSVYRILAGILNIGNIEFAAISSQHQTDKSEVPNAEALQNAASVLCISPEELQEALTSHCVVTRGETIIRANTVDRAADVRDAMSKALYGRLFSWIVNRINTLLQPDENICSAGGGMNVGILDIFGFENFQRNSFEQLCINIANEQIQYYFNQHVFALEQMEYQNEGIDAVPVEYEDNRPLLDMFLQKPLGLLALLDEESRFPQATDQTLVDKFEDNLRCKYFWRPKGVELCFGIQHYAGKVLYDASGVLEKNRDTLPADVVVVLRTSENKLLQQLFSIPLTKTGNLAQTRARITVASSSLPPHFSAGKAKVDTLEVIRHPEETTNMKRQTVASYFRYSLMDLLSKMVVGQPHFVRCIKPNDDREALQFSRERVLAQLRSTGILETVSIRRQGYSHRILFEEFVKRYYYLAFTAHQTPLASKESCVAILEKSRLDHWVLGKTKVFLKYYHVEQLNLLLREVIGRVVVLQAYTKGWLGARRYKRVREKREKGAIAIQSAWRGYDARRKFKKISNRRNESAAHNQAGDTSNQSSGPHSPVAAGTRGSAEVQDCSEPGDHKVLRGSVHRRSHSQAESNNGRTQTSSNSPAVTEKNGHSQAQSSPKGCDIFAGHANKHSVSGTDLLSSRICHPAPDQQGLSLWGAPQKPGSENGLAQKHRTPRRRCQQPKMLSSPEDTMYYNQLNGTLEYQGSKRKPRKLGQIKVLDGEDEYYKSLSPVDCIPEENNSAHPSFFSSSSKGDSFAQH
As to the kind of experiment: Inhibition of human recombinant MYO3B at 15 nM in presence of ATP by radiometric assay relative to control.

With `O=C(N[C@@H](C1CC1)C(F)(F)F)c1cc(-c2cnn3cc(-c4ccc(F)cc4)cnc23)cs1`, the inhibition – broadly, the drop in the measured response relative to a control, in per cent – in experiment [1] worked out at 0%.

With `CNC(=O)c1ccccc1Oc1nc(Nc2cc(OC)c(OC)c(OC)c2)ncc1Br`, the inhibition in experiment [2] was determined as 7%.

Consider `CC(C)[C@H](NC(=O)c1cc(-c2cnn3cc(-c4ccc(OCCN5CCCCC5)cc4)cnc23)cs1)C(F)(F)F`, for which the fold change (FC) in experiment [3] amounted to 0.31. Moreover, the inhibition in experiment [4] was 6%.
